The numbers were not newly measured in EP3067353A1, “A PROCESS FOR THE PREPARATION OF SOLIFENACIN SALTS AND THEIR INCLUSION INTO PHARMACEUTICAL DOSAGE FORMS” (KRKA, D.D., Novo Mesto, priority 2008, dated 2010), which cites them from elsewhere.

Each structure is given as a SMILES string. Structures can show the parent of a compound that is named as a salt.

The conditions of data set [1]: relative humidity of 70% (room temperature).

As to `O=C(O[C@H]1CN2CCC1CC2)N1CCc2ccccc2[C@@H]1c1ccccc1` [hydrochloride], the “impurities during long term storage” value is “increase of impurities during long term storage”. The hygroscopicity result in data set [1] is recorded as “so hydroscopic as to deliquence”.
